Where two headings read alike, the source gives them in different places.
How the values were obtained:
[1] = Inhibition of Gastric Acid Secretion in the Conscious Male Rat; format: in vivo, Sprague-Dawley; conditions: in vivo, ratio ED50 iv/ED50 id, read-out: "Bioavailability" measured by the Rough Screening Model, Rat ED50 iv/ED50 id (%)
Method: (§1) Since the bioavailability model described above is time and labour intensive, and requires a large number of plasma analyses, also a rough screening model, based on relative potencies to inhibit acid secretion, has been used (see for instance: A. Goth, Medical Pharmacology, 7th ed., C. V. Mosby Company, Saint Louis 1974, p 19). Thus, the ratio (called "Bioavailability" in Table 3) between the ED50 at intravenous administration and the ED50 at intraduodenal administration was calculated.
(§2) The potency for inhibition of acid secretion has been measured in the male rat and the dog, both intravenously and intraduodenally. When it comes to relevance of the animal test data for potency of a given compound in man for the present type of compounds, it is believed that potency in man will correspond to a level somewhere between what is measured in the male rat and what is measured in the dog.
(§3) Inhibition of Gastric Acid Secretion in the Conscious Male Rat.
(§4) Male rats of the Sprague-Dawley strain were used. They were equipped with cannulated fistulae in the stomach (lumen) and the upper part of the duodenum, for collection of gastric secretions and administration of test substances, respectively. A fourteen days recovery period after surgery was allowed before testing commenced.
(§5) Before secretory tests, the animals were deprived of food but not water for 20 h. The stomach was repeatedly washed through the gastric cannula, and 6 ml of Ringer-Glucose given s.c. Acid secretion was stimulated with a infusion during 3.5 h (1.2 ml/h, s.c.) of pentagastrin and carbachol (20 and 110 nmol/kg h, respectively), during which time gastric secretions were collected in 30-min fractions. Test substances or vehicle were given iv or id at 90 min after starting the stimulation, in a volume of 1 ml/kg. Gastric juice samples were titrated to pH 7.0 with NaOH, 0.1 mol/L, and acid output calculated as the product of titrant volume and concentration. Further calculations were based on group mean responses from 4-5 rats. The acid output during the periods after administration of test substances or vehicle were expressed as fractional responses, setting the acid output in the 30-min period preceding administration to 1.0. Percentage inhibition was calculated from the fractional responses elicited by test compound and vehicle. ED50 values were obtained from graphical interpolation on log dose-response curves, or estimated from single-dose experiments assuming a similar slope for all dose-response curves. An estimation of the bioavailability was obtained by calculating the ratio ED50 iv /ED50 id. The results reported are based on gastric acid secretion during the second hour after drug/vehicle administration.

[2] = system: gastric acid secretion (stimulated with pentagastrin and carbachol); experiment: as above; format: in vivo, Sprague-Dawley; conditions: 2 h, acid secretion during second hour after administration
Method: as §1, §2, §3, §4, §5

[3] = Bioavailability in the Male Rat (AUC method); format: in vivo, Sprague-Dawley; conditions: blood, 4 umol/kg, AUC id vs iv, 4 μmol/kg, read-out: Bioavailability measured by the AUL-method, F %, Rat
Method: Bioavailability is assessed by calculating the quotient between the area under plasma concentration (AUC) curve following intraduodenal (id) administration and intravenous (iv) administration from the rat or the dog. Low, therapeutically relevant doses, were used. This method is scientifically recognized as valid for assessing bioavailability (see for instance: M. Rowland and T.N. Tozer, Clinical Pharmacokinetics, 2nd ed., Lea & Febiger, London 1989, p 42). Bioavailability in the Male Rat. Male adult rats of the Sprague-Dawley strain were used. One day, prior to the experiments, all rats were prepared by cannulation of the left carotid artery under anaesthesia. The rats used for the intravenous experiments, were also cannulated in the jugular vein. (Ref. V Popovic and P Popovic, J Appl Physiol 1960;15,727-728). The rats used for the intraduodenal experiments, were also cannulated in the upper part of the duodenum. The cannulas were exteriorized at the nape of the neck. […] The area under the blood concentration vs time curve, AUC, was determined by the linear trapezoidal rule and extrapolated to infinity by dividing the last determined blood concentration by the elimination rate constant in the terminal phase. The systemic bioavailability (F %) following intraduodenal administration was calculated as [formula]

[4] = system: gastric acid secretion (stimulated with histamine dihydrochloride); experiment: Inhibition of Gastric Acid Secretion in the Conscious Dog; format: in vivo, Harrier dog, either sex; conditions: for ED50: Canis lupus familiaris, dog, acid output 2 h after dosing
Method: as §2
Inhibition of Gastric Acid Secretion and Bioavailability in the Conscious Dog.
Harrier dogs of either sex were used. They were equipped with a duodenal fistula for the administration of test compounds or vehicle and a cannulated ventricular fistula for the collection of gastric secretions.
Before secretory tests the animals were fasted for about 18 h but water was freely allowed. Gastric acid secretion was stimulated by a 4 h infusion of histamine dihydrochloride (12 ml/h) at a dose producing about 80% of the individual maximal secretory response, and gastric juice collected in consecutive 30-min fractions. Test substance or vehicle was given id or iv 1 h after starting the histamine infusion, in a volume of 0.5 ml/kg body weight. The acidity of the gastric juice samples were determined by titration to pH 7.0, and the acid output calculated. The acid output in the collection periods after administration of test substance or vehicle were expressed as fractional responses, setting the acid output in the fraction preceding administration to 1.0. Percentage inhibition was calculated from fractional responses elicited by test compound and vehicle. ED50 --values were obtained by graphical interpolation on log dose-response curves, or estimated from single-dose experiments under the assumption of the same slope of the dose-response curve for all test compounds. All results reported are based on acid output 2 h after dosing.

[5] = Chemical Stability in aqueous buffer solution at pH 7; format: physicochemical; conditions: pH 7, 37° C., low concentration; for half-life: read-out: Chemical Stability at pH 7, half-life (t 1/2) (converted)
Method: The chemical stability of various compounds of the invention has been followed kinetically at low concentration at 37° C. in aqueous buffer solution at different pH values. The results in Table 3 show the half life (t 1/2) at pH 7, that is the time period after which half the amount of the original compound remains unchanged.

[6] = route id (intraduodenal), read-out: Inhibition of acid secretion, Rat ED50, id
[7] = route iv, read-out: Inhibition of acid secretion, Rat ED50, iv
[8] = route id (intraduodenal), Ref. value: estimated from one dog (footnote 1), read-out: Inhibition of acid secretion, Dog ED50, id

| bioavailability [1] | bioavailability [3] | Chemical Stability at pH 7, half-life (t 1/2) [5] | half-life [5] | SMILES | ED50 [2, 6] | ED50 [2, 7] | ED50 [4, 8] | ED50 ([4]; route iv, Example 1 value: only one dog (footnote 2), read-out: Inhibition of acid secretion, Dog ED50, iv) | effect on acid secretion at 1.0 μmol/kg ([4]; Dog 1, 1.0 μmol/kg, id) | inhibition of acid secretion at 2.0 μmol/kg ([4]; Dog 2, 2.0 μmol/kg, id) |
| --- | --- | --- | --- | --- | --- | --- | --- | --- | --- | --- |
| 50% | 97% | 30 h | 30 h | COc1ccnc(C[S+]([O-])c2nc3cc(Cl)ccc3[nH]2)c1OC (centres unmarked) [Example 1, 5-chloro-2-[[(3,4-dimethoxy-2-pyridinyl)methyl]sulfinyl]-1H-benzimidazole] | 2.6 µmol/kg | 1.3 µmol/kg | 1.2 µmol/kg | 1.75 µmol/kg |  |  |
| 49% | 47% | 58 h | 58 h | COc1ccnc(C[S+]([O-])c2nc3cc(F)ccc3[nH]2)c1OC (centres unmarked) [Ref., 5-fluoro-2-[[(3,4-dimethoxy-2-pyridinyl)methyl]sulfinyl]-1H-benzimidazole] | 1.75 µmol/kg | 0.85 µmol/kg | 1.1 µmol/kg |  | no effect | 70% |

— patent publication US5019584A, “Therapeutically active chloro substituted benzimidazole” (priority 1988, dated 1991)
